Test results taken from patent publication US7074765B2, “Synthetic peptide analogs of Arg-Pro-Pro-Gly-Phe as selective inhibitors of thrombin and thrombin activation of protease activated receptors 1 and 4” (The Regents of the University of Michigan, priority 2003, dated 2006).
Values joined by “and” are separate entries in the source; they are usually repeats but may differ in a detail not shown here. Equal entries are not always repeated. Square brackets hold non-standard residues; d marks the D form. Ends that are not written are not given here. Oic = O=C(O)[C@@H]1C[C@@H]2CCCC[C@@H]2N1; Igl = N[C@H](C(=O)O)C1Cc2ccccc2C1; Hyp = O=C(O)[C@@H]1C[C@@H](O)CN1; 2Thi = N[C@@H](Cc1cccs1)C(=O)O

T1: recombinant protease activated receptor 1 extracellular domain (rPAR1EC) (Homo sapiens, UniProt P25116)
T1 construct: A portion of the extracellular domain of human PAR1 (Ala^26-Ser^99) (rPAR1EC) was expressed in Escherichia coli; His10-DDDDK (pET19b) (N); made in house; host or cells: E. coli BL21(DE3), pET19b
T1 sequence (P25116 26-99): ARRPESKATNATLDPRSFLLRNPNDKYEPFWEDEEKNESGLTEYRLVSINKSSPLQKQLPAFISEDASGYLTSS

T2: RPPGF (Arg-Pro-Pro-Gly-Phe, SEQ ID NO:4)
T2 sequence: RPPGF

T3: recombinant protease activated receptor 1 extracellular domain (rPAR1EC), human PAR1 Ala26-Ser99, His10-DDDDK fusion (human), P25116
T3 chain: T1 sequence (P25116 26-99)

B1: RPPGF (Arg-Pro-Pro-Gly-Phe, SEQ ID NO:4) (peptide)
peptide: RPPGF
modifications: not checked
B2: rOicPGF (D-Arg-Oic-Pro-Gly-Phe) (peptide)
peptide: [dR][Oic]PGF

How the values were obtained:
[1] = tested on: platelets in platelet-rich plasma; assay: γ-thrombin-induced platelet aggregation in platelet-rich plasma; format: cell-based, human; conditions: minimal concentration that blocked γ-thrombin-induced platelet aggregation in platelet-rich plasma
Procedure: Fresh whole blood was collected and mixed with 0.013 M sodium citrate and platelet-rich plasma was prepared according to the method of Meloni et al., J. Biol. Chem. 266, 6786 (1991). Platelet-rich plasma with a normalized platelet count between 2–2.5×10^8 platelets/ml was added to a cuvette of an aggregometer (Chronlog Corp., Havertown, Pa.), standardized using the protocol of Meloni et al., supra. Peptides to be examined were added to the cuvette and the mixture stabilized for a few moments. Once the baseline was stabilized, γ-thrombin (10–70 nM) (Haematologic Technologies, Essex Junction, Vt.) was added to determine the minimal concentration of the agonist necessary to achieve full platelet aggregation. All investigations with peptides were performed using threshold concentrations of γ-thrombin. Aggregation was allowed to proceed for 5 minutes before stopping. When ADP-induced platelet aggregation studies were performed, 1–5 μM ADP (Sigma) was added to the cuvette containing platelet-rich plasma.

[2] = tested on: normal human lung fibroblasts (NHLF); assay: α-thrombin-induced calcium mobilization in fibroblasts; format: cell-based; conditions: 0.1 mM peptide; α-thrombin-induced calcium mobilization in fibroblasts
Procedure: The second assay developed to assess peptides from the combinatorial libraries uses inhibition of α-thrombin-induced calcium mobilization in fibroblasts. Normal human lung fibroblasts (NHLF) were purchased from Clonetics, San Diego, Calif., an affiliate of Bio-Wittaker, Walkersville, Md. The cytoplasmic free Ca^2+ concentration ([Ca^2+]i) was measured using the fluorescent Ca^2+ indicator fura-2 (Molecular Probes, Inc., Eugene, Oreg.). Suspension of fibroblasts in Hepes-Tyrode's buffer were loaded with fura-2 by incubation at 37° C. with 2 μM fura-2/acetoxymethyl ester for 45 minutes according to the method of Rasmussen et al., J. Biol. Chem. 268, 14322 (1993). The labeled fibroblasts were separated from excess probe by washing by centrifugation at 1000 rpm (180×g). Aliquots of the labeled fibroblasts were transferred into a quartz cuvette with a magnetic stirrer, which was then placed in a thermostatically controlled chamber at 37° C. in a fluorescence spectrophotometer (Perkin-Elmer LS50B spectrofluorometer, Chicago, Ill.). Reagents, test peptide, and α-thrombin (0.25–2 nM), were sequentially added directly to the cuvette. The excitation wavelengths varied between 340 and 380 nm. Fluorescence was measured by recording emitted light at 510 nm as reported by Fisher et al., Mol Pharm. 35, 195 (1989). The minimum emission was determined on a solubilized fibroblast sample in the presence of 10 mM EDTA; maximum emission was determined on the same sample with 10 mM Ca^2+ added. The intrafibroblast free Ca^2+ concentration was calculated by the method of Grykiewicz et al., J. Biol. Chem. 260, 3440 (1985). […] The KD for fura-2 was assumed to be 224 nM. Rmax and Rmin are the maximum and minimum fluorescence ratios measured at the end of the experiment, respectively; Sf2 and Sb2 are the fluorescence values at 380 nm in the absence and presence of saturating [Ca^2+], respectively. The reaction was monitored for 3–5 minutes.

[3] = tested on: normal human citrated plasma; assay: activated partial thromboplastin time (APTT); format: biochemical; conditions: peptide at the concentration that inhibits platelet aggregation
Procedure: (§1) The influence of the various peptide formulations used in the present invention on established coagulation-based assays was determined. The activated partial thromboplastin time (APTT) is performed by mixing 0.05 ml normal human citrated plasma with 0.05 ml activated partial thromboplastin reagent purchased from Organon Teknika, Research Triangle Park, N.C. in the absence or presence of a peptide inhibitor. After incubation for 5 min at 37° C., the mixture is recalcified with 0.05 ml of 30 mM calcium chloride and the time to clot formation is measured in an Amelung KC4A instrument (Sigma Chemical Corp, St. Louis, Mo.) (Hasan et al. Thrombosis and Haemostasis. 82, 1182–1187 (1999)). The prothrombin time (PT) is performed by mixing 0.05 ml normal human citrated plasma with 0.05 ml Simplastin (Organon Teknika, Research Triangle Park, N.C.) followed by incubation for 3 min at 37° C. in the absence or presence of a peptide inhibitor. At the addition of 0.05 ml of 30 mM calcium chloride, the time to clot formation is measured in an KC4A instrument (Sigma Chemical Corp, St. Louis, Mo.) (Hasan et al. Thrombosis and Haemostasis. 82, 1182–1187 (1999)). The thrombin clotting time (TCT) is performed by adding 0.1 ml normal human citrated plasma in the absence or presence of a peptide inhibitor and 0.05 ml of a α-thrombin solution such that the final concentration of the thrombin in the entire mixture was 1 nM. Upon addition of the thrombin, the time to clot formation is measured in an KC4A instrument (Sigma Chemical Corp, St. Louis, Mo.). In FIG. 5, peptide TH146 produces a significant prolongation (p<0.05) of the activated partial thromboplastin time at 15 μM, of the prothrombin time at 60 μM, and the thrombin clotting time at 15 μM. In FIG. 6, peptide MAP4-TH146 produced a significant prolongation (p<0.05) of the activated partial thromboplastin time at 0.195 μM, of the prothrombin time at 3.125 μM, and the thrombin clotting time at 0.39 μM.

[4] = tested on: normal human citrated plasma; assay: prothrombin time (PT); format: biochemical; conditions: peptide at the concentration that inhibits platelet aggregation
Procedure: as §1

[5] = tested on: normal human citrated plasma; assay: thrombin clotting time (TCT); format: biochemical; conditions: peptide at the concentration that inhibits platelet aggregation
Procedure: as §1

[6] = target: T1, recombinant protease activated receptor 1 extracellular domain (rPAR1EC); assay: Inhibition of RPPGF-biotin binding to rPAR1EC; conditions: 5 mM peptide, 50 μM RPPGF-biotin (FIG. 7); listed in decreasing order
[7] = target: recombinant protease activated receptor 1 extracellular domain (rPAR1EC), human PAR1 Ala26-Ser99, His10-DDDDK fusion (human) (UniProt P25116); assay: cell-based or functional assay
α-thrombin = α-thrombin (Homo sapiens, UniProt P00734); assay: cell-based or functional assay
thrombin = thrombin (Homo sapiens, UniProt P00734); conditions: read-out: Ki (direct inhibitor of thrombin); cited from earlier work
PC-3 cells = assay: Thrombin-induced motility of prostate cancer cells (Boyden chamber); format: cell-based; conditions: 10 μM; 2 nM α-thrombin
Procedure: Motility assays are performed with a modified Boyden chamber (tissue culture-treated, 6.5 mm diameter, 10 μm thickness, 8 μm pores). In the motility assays, 2.5×10^4 cells are plated in the top chamber of non-coated polyethylene teraphthalate (PET) membranes (24-well insert, pore size […]; Becton Dickinson). […] RPMI 10% fetal bovine serum is used as a chemoattractant in the lower chamber. […] The cells that transverse the membranes are stained with Dip-Quick (Jorgensen Laboratories, Loveland, Colo.). Cells in five random fields of view at 200× are counted and expressed as the average number of cells/field of view. […]

[8] = tested on: MAP4-RPPGF (β-Ala-Lys-2Lys-4(Arg-Pro-Pro-Gly-Phe))
[9] = tested on: MAP4-rOicPGF (β-Ala-Lys-2Lys-4(D-Arg-Oic-Pro-Gly-Phe))
[10] = tested on: T2, RPPGF (Arg-Pro-Pro-Gly-Phe, SEQ ID NO:4)
[11] = target: T3, recombinant protease activated receptor …; assay: cell-based or functional assay
[12] = target: human α-thrombin (human), P00734; assay: cell-based or functional assay

Molecule	Concentration of Peptide [mM] That Gives 100% Inhibition [1]	Ca^2^+ % Inhibition At 0.1 mM Peptide [2]	APTT (Fold Prolongation over RPPGF) [3]	PT (Fold Prolongation over RPPGF) [4]	TCT (Fold Prolongation over RPPGF) [5]	also measured
D-Arg-Idg-Tic-Gly-Phe [rIdgTicGF]	0.1 mM	58.44%	1.0 Fold	1.1 Fold	1.2 Fold	
D-Arg-Oic-Hyp-Gly-Idg [TH37]						blocking of RPPGF-biotin binding to rPAR1EC by peptides [6]: blocked
D-Arg-Oic-Hyp-Gly-Idg [rOicHypGIdg]	0.157 mM	36.7%	1.1 Fold	1.1 Fold	1.7 Fold	
D-Arg-Oic-Oic-Gly-Idg [rOicOicGIdg]	0.257 mM	28.1%	1.1 Fold	1.1 Fold	1.1 Fold	
D-Arg-Oic-Pro-Gly-Idg ([dR][Oic]PG[Igl]-NH2; N-terminus assumed; SMILES N=C(N)NCCC[C@@H](N)C(=O)N1[C@H](C(=O)N2CCC[C@H]2C(=O)NCC(=O)N[C@H](C(N)=O)C2Cc3ccccc3C2)C[C@@H]2CCCC[C@@H]21) [rOicPGIdg]	0.129 mM	36.2%	1.1 Fold	1.1 Fold	1.5 Fold	blocking of RPPGF-biotin binding to rPAR1EC by peptides [6]: blocked
MAP4-RPPGF (β-Ala-Lys-2Lys-4(Arg-Pro-Pro-Gly-Phe)) (peptide)						inhibition of thrombocytin cleavage of PAR1 (rPAR1EC, SDS-PAGE) [7]: 0.2 mM and 0.5 mM
MAP4-rOicPGF (β-Ala-Lys-2Lys-4(D-Arg-Oic-Pro-Gly-Phe)) (peptide)						inhibition of thrombocytin-induced cleavage of recombinant extracellular domain of human PAR1 (SDS-PAGE) [7]: 0.2 mM; concentration giving significant prolongation (p<0.05) of the APTT of normal human plasma (α-thrombin): 0.195 µM; concentration giving significant prolongation (p<0.05) of the PT of normal human plasma (α-thrombin): 3.12 µM; concentration giving significant prolongation (p<0.05) of the TCT of normal human plasma (α-thrombin): 0.39 µM
RPPGFSPFR [Bradykinin, Arg-Pro-Pro-Gly-Phe-Ser-Pro-Phe-Arg]						Ki (thrombin): 170 to 326 µM
[dR][Oic][Hyp]G[2Thi] [rOicHypGThi]	0.157 mM	38%	1.1 Fold	1.1 Fold	1.3 Fold	
[dR][Oic][Oic]G[2Thi] [rOicOicGThi]	0.271 mM	18.2%	1.2 Fold	1.1 Fold	1.1 Fold	
hirudin [reference compound]						effect on thrombin-induced PC-3 cell motility (PC-3 cells): block
thrombocytin						thrombocytin (16.7 nM) hydrolysis of 1 mM H-D-Phe-Pip-Arg-paranitroanilide in the presence of 1 mM MAP4-RPPGF [8]: RPPGF (SEQ ID NO:4) or MAP4-RPPGF inhibits the ability of these enzymes to hydrolyze their substrates; thrombocytin (16.7 nM) hydrolysis of 1 mM H-D-Phe-Pip-Arg-paranitroanilide (S2238), 0-1.0 mM MAP4-TH146 [9]: MAP4-TH146 inhibits these enzymes' ability to hydrolyze their substrates; thrombocytin (16.7 nM) hydrolysis of 1 mM H-D-Phe-Pip-Arg-paranitroanilide in the presence of 2 mM RPPGF [10]: RPPGF (SEQ ID NO:4) or MAP4-RPPGF inhibits the ability of these enzymes to hydrolyze their substrates
B1						inhibition of thrombocytin cleavage of recombinant human PAR1 extracellular domain (SDS-PAGE) [11]: 0.5 mM and 1 mM
B2						concentration giving significant prolongation (p<0.05) of the activated partial thromboplastin time [12]: 15 µM; concentration giving significant prolongation (p<0.05) of the prothrombin time [12]: 60 µM; concentration giving significant prolongation (p<0.05) of the thrombin clotting time [12]: 15 µM; concentration giving significant prolongation of the APTT of normal human plasma [12]: 3.7 µM; concentration giving significant prolongation of the PT of normal human plasma [12]: 30 µM; concentration giving significant prolongation of the TCT of normal human plasma [12]: 3.7 µM
